Source: US9708316B2 (BRISTOL-MYERS SQUIBB COMPANY, priority 2014, dated 2017)

What was measured:
HIS-TGFβR2 WT = HIS-TGFβR2 WT (Homo sapiens, UniProt P37173); assay: HTRF probe-displacement assay, HIS-TGFβR2 WT; type: binding
HIS-TGFβR1 T204D = biological target: T1, HIS-TGFβR1 T204D (Homo sapiens, UniProt P36897, T204D); assay: HTRF probe-displacement assay, HIS-TGFβR1 T204D; type: binding; settings: read-out: TGFβR1 (μM) IC50
T1 sequence (P36897 34-503 T204D): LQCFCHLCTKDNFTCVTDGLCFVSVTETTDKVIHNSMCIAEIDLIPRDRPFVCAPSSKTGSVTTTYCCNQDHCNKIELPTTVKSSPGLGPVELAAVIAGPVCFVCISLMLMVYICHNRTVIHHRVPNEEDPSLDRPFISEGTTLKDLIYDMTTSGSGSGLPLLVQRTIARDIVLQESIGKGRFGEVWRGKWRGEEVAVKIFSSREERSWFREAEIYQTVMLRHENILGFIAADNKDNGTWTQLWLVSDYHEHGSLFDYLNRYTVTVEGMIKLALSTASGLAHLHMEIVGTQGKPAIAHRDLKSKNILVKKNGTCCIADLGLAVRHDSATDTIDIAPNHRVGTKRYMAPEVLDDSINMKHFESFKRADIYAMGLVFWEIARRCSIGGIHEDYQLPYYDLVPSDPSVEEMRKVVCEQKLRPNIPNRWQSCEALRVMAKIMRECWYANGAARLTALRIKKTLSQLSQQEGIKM

Sequence of HIS-TGFβR2 WT (P37173 23-567): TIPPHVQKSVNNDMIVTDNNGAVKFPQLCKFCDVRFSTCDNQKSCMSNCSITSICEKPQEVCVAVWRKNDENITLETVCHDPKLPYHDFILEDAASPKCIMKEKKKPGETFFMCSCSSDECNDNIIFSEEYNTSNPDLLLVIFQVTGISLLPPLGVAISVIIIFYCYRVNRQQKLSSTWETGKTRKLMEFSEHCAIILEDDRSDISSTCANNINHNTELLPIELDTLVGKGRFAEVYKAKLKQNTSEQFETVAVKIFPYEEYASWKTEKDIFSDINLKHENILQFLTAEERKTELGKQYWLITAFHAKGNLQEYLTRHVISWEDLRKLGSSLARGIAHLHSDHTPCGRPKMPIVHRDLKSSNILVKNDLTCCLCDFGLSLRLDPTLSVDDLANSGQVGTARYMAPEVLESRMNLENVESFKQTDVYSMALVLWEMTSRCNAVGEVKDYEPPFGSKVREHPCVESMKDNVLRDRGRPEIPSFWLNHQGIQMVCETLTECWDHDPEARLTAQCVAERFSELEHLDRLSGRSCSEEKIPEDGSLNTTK

| Compound | IC50 (HIS-TGFβR2 WT) [µM] | IC50 (HIS-TGFβR1 T204D) [µM] |
| --- | --- | --- |
| COc1cnc(-c2c(-c3ccnc(NC(C)=O)c3)[nH]c3cccnc23)cn1 [Example 194, N-(4-(3-(5-Methoxypyrazin-2-yl)-1H-pyrrolo[3,2-b]pyridin-2-yl)pyridin-2-yl)acetamide] | 4.31 | 0.005 |
| CC(=O)Nc1cc(-c2[nH]c3cccnc3c2-c2ccn[nH]2)ccn1 [Example 191, N-(4-(3-(1H-Pyrazol-5-yl)-1H-pyrrolo[3,2-b]pyridin-2-yl)pyridin-2-yl)acetamide] | 2 | 0.0939 |
| COc1ccc(-c2c(-c3ccnc(NC(C)=O)c3)[nH]c3c(C#N)ccnc23)cn1 [Example 80, N-(4-(7-Cyano-3-(6-methoxypyridin-3-yl)-1H-pyrrolo[3,2-b]pyridin-2-yl)pyridin-2-yl)acetamide] | 0.083 | 0.007 |
| CC(=O)Nc1cc(-c2[nH]c3c(CN4CCOCC4)ccnc3c2-c2cccc(C(F)F)n2)ccn1 [Example 140, N-(4-{3-[6-(Difluoromethyl)pyridin-2-yl]-7-(morpholin-4-ylmethyl)-1H-pyrrolo[3,2-b]pyridin-2-yl}pyridin-2-yl)acetamide] | 7.6 | 0.001 |
| O=C(CNCCCN1CCOCC1)Nc1cc(-c2[nH]c3cc(Cl)cnc3c2-c2ccc(F)cn2)ccn1 [Example 89, N-{4-[6-Chloro-3-(5-fluoropyridin-2-yl)-1H-pyrrolo[3,2-b]pyridin-2-yl]pyridin-2-yl}-2-{[3-(morpholin-4-yl)propyl]amino}acetamide] | 4.81 | 0.003 |
| CC(=O)Nc1cc(-c2[nH]c3c(OCCN4CCCC4)ccnc3c2-c2cccc(C(F)F)n2)ccn1 [Example 126, N-(4-{3-[6-(Difluoromethyl)pyridin-2-yl]-7-[2-(pyrrolidin-1-yl)ethoxy]-1H-pyrrolo[3,2-b]pyridin-2-yl}pyridin-2-yl)acetamide] | > 15 | 0.009 |
| CC(=O)Nc1cc(-c2[nH]c3cccnc3c2-c2cccc(F)n2)ccn1 [Example 16, N-{4-[3-(6-Fluoropyridin-2-yl)-1H-pyrrolo[3,2-b]pyridin-2-yl]pyridin-2-yl}acetamide] | 0.087 | 0.002 |
| CC(=O)Nc1cc(-c2[nH]c3cccnc3c2-c2ccc(F)c(C(F)F)n2)ccn1 [Example 193, N-(4-(3-(6-(Difluoromethyl)-5-fluoropyridin-2-yl)-1H-pyrrolo[3,2-b]pyridin-2-yl)pyridin-2-yl)acetamide] | > 15 | 0.0006 |
| COc1ccc(-c2c(-c3ccnc(NC(C)=O)c3)[nH]c3cc(N4CC[C@H](O)[C@@H](O)C4)cnc23)nc1 [Example 166, N-(4-(6-((3S,4S)-3,4-Dihydroxypiperidin-l-yl)-3-(5-methoxypyridin-2-yl)-1H-pyrrolo[3,2-b]pyridin-2-yl)pyridin-2-yl)acetamide] | > 15 | 0.0132 |
| CC(=O)Nc1cc(-c2[nH]c3c(CN4CC(F)(F)C4)ccnc3c2-c2cccc(C(F)F)n2)ccn1 [Example 152, N-(4-{7-[(3,3-Difluoroazetidin-1-yl)methyl]-3-[6-(difluoromethyl)pyridin-2-yl]-1H-pyrrolo[3,2-b]pyridin-2-yl}pyridin-2-yl)acetamide] | 4.09 | 0.002 |
| COc1ccc(-c2c(-c3ccnc(NC(C)=O)c3)[nH]c3cc(Cl)cnc23)cn1 [Example 43, N-{4-[6-Chloro-3-(6-methoxypyridin-3-yl)-1H-pyrrolo[3,2-b]pyridin-2-yl]pyridin-2-yl}acetamide] | 0.068 | 0.002 |
| CC(=O)Nc1cc(-c2[nH]c3c(Cl)ccnc3c2-c2ccc(F)cn2)ccn1 [Example 61, N-{4-[7-Chloro-3-(5-fluoropyridin-2-yl)-1H-pyrrolo[3,2-b]pyridin-2-yl]pyridin-2-yl}acetamide] | 0.98 | 0.005 |
| CC(=O)Nc1cc(-c2[nH]c3cccnc3c2-c2nccc(C)n2)ccn1 [Example 195, N-(4-(3-(4-Methylpyrimidin-2-yl)-1H-pyrrolo[3,2-b]pyridin-2-yl)pyridin-2-yl)acetamide] | > 15 | 0.0048 |
| CC(=O)Nc1cc(-c2[nH]c3cc(C)cnc3c2-c2ncc(C(F)F)s2)ccn1 [Example 185, N-(4-(3-(5-(Difluoromethyl)thiazol-2-yl)-6-methyl-1H-pyrrolo[3,2-b]pyridin-2-yl)pyridin-2-yl)acetamide] | > 15 | 7 |

Now from value to compound:

| IC50 (HIS-TGFβR2 WT) [µM] | IC50 (HIS-TGFβR1 T204D) [µM] | Compound |
| --- | --- | --- |
| 0.016 | 0.002 | COc1cnc2c(-c3ccc(OC)nc3)c(-c3ccnc(NC(C)=O)c3)[nH]c2c1 [Example 285, N-(4-(6-Methoxy-3-(6-methoxypyridin-3-yl)-1H-pyrrolo[3,2-b]pyridin-2-yl)pyridin-2-yl)acetamide] |
| 10.9 | 0.0014 | COc1cnc2c(-c3nc(C(F)(F)F)cs3)c(-c3ccnc(NC(C)=O)c3)[nH]c2c1 [Example 229, N-(4-(6-Methoxy-3-(4-(trifluoromethyl)thiazol-2-yl)-1H-pyrrolo[3,2-b]pyridin-2-yl)pyridin-2-yl)acetamide] |
| 0.12 | 0.008 | COc1ccc(-c2c(-c3ccnc(NC(C)=O)c3)[nH]c3c(C(C)=O)ccnc23)cn1 [Example 298, N-(4-(7-Acetyl-3-(6-methoxypyridin-3-yl)-1H-pyrrolo[3,2-b]pyridin-2-yl)pyridin-2-yl)acetamide] |
| > 15 | 0.111 | COc1ccc(-c2c(-c3ccnc(NC(C)=O)c3)[nH]c3cccnc23)nc1C [Example 237, N-(4-(3-(5-Methoxy-6-methylpyridin-2-yl)-1H-pyrrolo[3,2-b]pyridin-2-yl)pyridin-2-yl)acetamide] |
| 0.031 | 0.001 | CCC(O)c1ccnc2c(-c3ccc(OC)nc3)c(-c3ccnc(NC(C)=O)c3)[nH]c12 (stereo not drawn) [Example 301, N-(4-(7-(1-Hydroxypropyl)-3-(6-methoxypyridin-3-yl)-1H-pyrrolo[3,2-b]pyridin-2-yl)pyridin-2-yl)acetamide] |
| > 15 | 0.0882 | COc1ccc(-c2c(-c3ccnc(NC(=O)CN4CCN(C)CC4)c3)[nH]c3cc(Cl)cnc23)nc1C [Example 238, N-(4-(6-Chloro-3-(5-methoxy-6-methylpyridin-2-yl)-1H-pyrrolo[3,2-b]pyridin-2-yl)pyridin-2-yl)-2-(4-methylpiperazin-1-yl)acetamide] |
| 0.218 | 0.0009 | COc1cnc2c(-c3ncc(C)s3)c(-c3ccnc(NC(C)=O)c3)[nH]c2c1 [Example 209, N-(4-(6-Methoxy-3-(5-methylthiazol-2-yl)-1H-pyrrolo[3,2-b]pyridin-2-yl)pyridin-2-yl)acetamide] |
| > 15 | 0.049 | CC(=O)Nc1cc(-c2[nH]c3cc(Cl)cnc3c2-c2cccc(C(C)C)n2)ccn1 [Example 260, N-(4-(6-Chloro-3-(6-isopropylpyridin-2-yl)-1H-pyrrolo[3,2-b]pyridin-2-yl)pyridin-2-yl)acetamide] |
| 0.572 | 0.0016 | COc1ccnc2c(-c3nc(C)cs3)c(-c3ccnc(NC(C)=O)c3)[nH]c12 [Example 234, N-(4-(7-Methoxy-3-(4-methylthiazol-2-yl)-1H-pyrrolo[3,2-b]pyridin-2-yl)pyridin-2-yl)acetamide] |
| 1.21 | 0.0951 | COc1cc(-c2c(-c3ccnc(NC(C)=O)c3)[nH]c3cccnc23)ccn1 [Example 196, N-(4-(3-(2-Methoxypyridin-4-yl)-1H-pyrrolo[3,2-b]pyridin-2-yl)pyridin-2-yl)acetamide] |
